Measurements taken from patent publication US11466016B2, “Pharmaceutical compounds” (priority 2018, dated 2022).
Structures can show the parent of a compound that is named as a salt. Where two headings read alike, the source gives them in different places.

Molecular target: SHP2 (Homo sapiens (Human), UniProt Q06124)
Experiment: SHP2 Biochemical Assay (DiFMUP conversion, pIRS1 activating peptide)
[1] = DiFMUP substrate, 0.25 μM pIRS1 peptide, 30 min pre-incubation, average where more than one data point, read-out: SHP2 (IC50)

SHP2, sequence (Q06124 whole entry): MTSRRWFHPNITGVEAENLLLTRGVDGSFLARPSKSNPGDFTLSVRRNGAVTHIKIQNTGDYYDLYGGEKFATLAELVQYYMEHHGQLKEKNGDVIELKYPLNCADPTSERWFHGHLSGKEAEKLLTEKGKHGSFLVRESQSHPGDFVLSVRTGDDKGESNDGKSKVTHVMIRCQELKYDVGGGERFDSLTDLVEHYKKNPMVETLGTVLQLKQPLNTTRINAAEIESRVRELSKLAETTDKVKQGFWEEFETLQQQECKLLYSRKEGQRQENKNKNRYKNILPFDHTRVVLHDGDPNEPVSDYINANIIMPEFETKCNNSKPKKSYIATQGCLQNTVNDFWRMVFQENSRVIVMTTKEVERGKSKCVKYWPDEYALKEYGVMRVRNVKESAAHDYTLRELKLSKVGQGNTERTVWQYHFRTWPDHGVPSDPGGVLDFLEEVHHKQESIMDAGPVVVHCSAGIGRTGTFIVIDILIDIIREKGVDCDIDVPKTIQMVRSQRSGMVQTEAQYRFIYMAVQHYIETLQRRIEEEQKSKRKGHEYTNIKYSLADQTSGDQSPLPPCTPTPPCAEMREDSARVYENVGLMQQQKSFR

Row | Compound | IC50 [1] | IC50
1 | COc1cnc2ccc(-c3n[nH]c4nc(N5CCC(C)(N)CC5)c(C)nc34)c(Cl)c2n1 [Example 120, 1-[3-(5-chloro-3-methoxyquinoxalin-6-yl)-5-methyl-1H-pyrazolo[3,4-b]pyrazin-6-yl]-4-methylpiperidin-4-amine] | 0.025 µM | 
2 | COc1cnc2ccc(-c3n[nH]c4nc(N5[C@@H]6CC[C@H]5[C@@H](F)[C@@H](N)C6)c(C)nc34)c(Cl)c2n1 [Example 121, (1S,2S,3S,5R)-8-[3-(5-chloro-3-methoxyquinoxalin-6-yl)-5-methyl-1H-pyrazolo[3,4-b]pyrazin-6-yl]-2-fluoro-8-azabicyclo[3.2.1]octan-3-amine] |  | 0.014 µM
3 | Cn1nc2ccc(-c3c[nH]c4nc(N5[C@H]6CC[C@@H]5[C@@H](F)[C@@H](N)C6)c(CO)nc34)c(Cl)c2c1Cl [Example 122, {3-[(1R,2S,3S,5S)-3-amino-2-fluoro-8-azabicyclo[3.2.1]octan-8-yl]-7-(3,4-dichloro-2-methyl-2H-indazol-5-yl)-5H-pyrrolo[2,3-b]pyrazin-2-yl}methanol] | 0.0052 µM | 
4 | Cc1nc2c(-c3ccc4nn(C)c(C#N)c4c3Cl)n[nH]c2nc1N1[C@H]2CC[C@@H]1[C@@H](F)[C@@H](N)C2 [Example 124, 5-{6-[(1R,2S,3S,5S)-3-amino-2-fluoro-8-azabicyclo[3.2.1]octan-8-yl]-5-methyl-1H-pyrazolo[3,4-b]pyrazin-3-yl}-4-chloro-2-methyl-2H-indazole-3-carbonitrile] | 0.0081 µM | 
5 | Cn1nc2ccc(-c3n[nH]c4nc(N5[C@@H]6CCC[C@H]5CNC6)c(CO)nc34)c(Cl)c2c1Cl [Example 125] | 0.0071 µM | 
6 | CCn1nc2ccc(-c3n[nH]c4nc(N5[C@H]6CC[C@@H]5[C@@H](F)[C@@H](N)C6)c(CO)nc34)c(Cl)c2c1C#N [Example 126, 5-{6-[(1R,2S,3S,5S)-3-amino-2-fluoro-8-azabicyclo[3.2.1]octan-8-yl]-5-(hydroxymethyl)-1H-pyrazolo[3,4-b]pyrazin-3-yl}-4-chloro-2-ethyl-2H-indazole-3-carbonitrile] | 0.0097 µM | 
7 | CCn1nc2ccc(-c3n[nH]c4nc(N5[C@H]6CC[C@@H]5[C@@H](F)[C@@H](N)C6)c(C)nc34)c(Cl)c2c1C#N [Example 127, 5-{6-[(1R,2S,3S,5S)-3-amino-2-fluoro-8-azabicyclo[3.2.1]octan-8-yl]-5-methyl-1H-pyrazolo[3,4-b]pyrazin-3-yl}-4-chloro-2-ethyl-2H-indazole-3-carbonitrile, hydrochloride salt] | 0.014 µM | 
8 | Cc1nc2ccc(-c3n[nH]c4nc(N5[C@@H]6CC[C@H]5C[C@@H](N)C6)c(CO)nc34)c(Cl)c2s1 [Example 128, {6-[endo-3-amino-8-azabicyclo[3.2.1]octan-8-yl]-3-(7-chloro-2-methyl-1,3-benzothiazol-6-yl)-1H-pyrazolo[3,4-b]pyrazin-5-yl}methanol] |  | 0.0073 µM
9 | Cn1nc2ccc(-c3n[nH]c4nc(N5[C@H]6CC[C@@H]5[C@@H](F)[C@@H](N)C6)c(CO)nc34)c(Cl)c2c1C#N [Example 129, 5-{6-[(1R,2S,3S,5S)-3-amino-2-fluoro-8-azabicyclo[3.2.1]octan-8-yl]-5-(hydroxymethyl)-1H-pyrazolo[3,4-b]pyrazin-3-yl}-4-chloro-2-methyl-2H-indazole-3-carbonitrile] | 0.005 µM | 
10 | CN(C)c1cnc2ccc(-c3n[nH]c4nc(N5[C@@H]6CC[C@H]5[C@@H](F)[C@@H](N)C6)c(CO)nc34)c(Cl)c2n1 [Example 130, {6-[(1S,2S,3S,5R)-3-amino-2-fluoro-8-azabicyclo[3.2.1]octan-8-yl]-3-[5-chloro-3-(dimethylamino)quinoxalin-6-yl]-1H-pyrazolo[3,4-b]pyrazin-5-yl}methanol] |  | 0.0095 µM
11 | CN(C)c1cnc2ccc(-c3n[nH]c4nc(N5[C@@H]6CC[C@H]5C[C@@](C)(N)C6)c(CO)nc34)c(Cl)c2n1 [Example 131, {6-[endo-3-amino-3-methyl-8-azabicyclo[3.2.1]octan-8-yl]-3-[5-chloro-3-(dimethylamino)quinoxalin-6-yl]-1H-pyrazolo[3,4-b]pyrazin-5-yl}methanol] |  | 0.0088 µM
12 | Cc1nc2c(-c3ccc4nc(CO)sc4c3Cl)n[nH]c2nc1N1[C@H]2CC[C@@H]1[C@@H](F)[C@@H](N)C2 [Example 132, (6-{6-[(1R,2S,3S,5S)-3-amino-2-fluoro-8-azabicyclo[3.2.1]octan-8-yl]-5-methyl-1H-pyrazolo[3,4-b]pyrazin-3-yl}-7-chloro-1,3-benzothiazol-2-yl)methanol, hydrochloride] | 0.011 µM | 
13 | CN(C)c1cnc2ccc(-c3n[nH]c4nc(N5[C@@H]6CC[C@H]5C[C@@H](N)C6)c(CO)nc34)c(Cl)c2n1 [Example 133, {6-[endo-3-amino-8-azabicyclo[3.2.1]octan-8-yl]-3-[5-chloro-3-(dimethylamino)quinoxalin-6-yl]-1H-pyrazolo[3,4-b]pyrazin-5-yl}methanol] | 0.006 µM | 
14 | COc1cnc2ccc(-c3n[nH]c4nc(N5[C@@H]6CC[C@H]5C[C@@](C)(N)C6)c(CO)nc34)c(Cl)c2n1 [Example 134, {6-[endo-3-amino-3-methyl-8-azabicyclo[3.2.1]octan-8-yl]-3-(5-chloro-3-methoxyquinoxalin-6-yl)-1H-pyrazolo[3,4-b]pyrazin-5-yl}methanol] | 0.01 µM | 
15 | COc1cnc2ccc(-c3n[nH]c4nc(N5[C@@H]6CC[C@H]5C[C@@H](N)C6)c(C)nc34)c(Cl)c2n1 [Example 135, endo-8-[3-(5-chloro-3-methoxyquinoxalin-6-yl)-5-methyl-1H-pyrazolo[3,4-b]pyrazin-6-yl]-8-azabicyclo[3.2.1]octan-3-amine] | 0.016 µM | 
16 | Cc1nc2c(-c3ccc4ncc(N(C)C)nc4c3Cl)n[nH]c2nc1N1[C@@H]2CC[C@H]1C[C@@H](N)C2 [Example 136, 7-{6-[endo-3-amino-8-azabicyclo[3.2.1]octan-8-yl]-5-methyl-1H-pyrazolo[3,4-b]pyrazin-3-yl}-8-chloro-N,N-dimethylquinoxalin-2-amine] | 0.009 µM | 
17 | Cc1nc2c(-c3ccc4ncc(N(C)C)nc4c3Cl)n[nH]c2nc1N1C2CCC1CNC2 [Example 137, 8-Chloro-7-(6-{3,8-diazabicyclo[3.2.1]octan-8-yl}-5-methyl-1H-pyrazolo[3,4-b]pyrazin-3-yl)-N,N-dimethylquinoxalin-2-amine] | 0.021 µM | 
18 | CCOc1cnc2ccc(-c3n[nH]c4nc(N5[C@H]6CC[C@@H]5[C@@H](F)[C@@H](N)C6)c(CO)nc34)c(Cl)c2n1 [Example 138, {6-[(1R,2S,3S,5S)-3-amino-2-fluoro-8-azabicyclo[3.2.1]octan-8-yl]-3-(5-chloro-3-ethoxyquinoxalin-6-yl)-1H-pyrazolo[3,4-b]pyrazin-5-yl}methanol] | 0.013 µM | 
19 | CCOc1cnc2ccc(-c3n[nH]c4nc(N5[C@H]6CC[C@@H]5[C@@H](F)[C@@H](N)C6)c(C)nc34)c(Cl)c2n1 [Example 139, (1R,2S,3S,5S)-8-[3-(5-chloro-3-ethoxyquinoxalin-6-yl)-5-methyl-1H-pyrazolo[3,4-b]pyrazin-6-yl]-2-fluoro-8-azabicyclo[3.2.1]octan-3-amine] | 0.022 µM | 
20 | Cc1nc2ccc(-c3n[nH]c4nc(N5[C@@H]6CC[C@H]5[C@@H](F)[C@@H](N)C6)c(CO)nc34)c(Cl)c2s1 [Example 140, {6-[(1S,2S,3S,5R)-3-amino-2-fluoro-8-azabicyclo[3.2.1]octan-8-yl]-3-(7-chloro-2-methyl-1,3-benzothiazol-6-yl)-1H-pyrazolo[3,4-b]pyrazin-5-yl}methanol] | 0.0077 µM | 
21 | Cc1c(-c2n[nH]c3nc(N4[C@@H]5CC[C@H]4[C@@H](F)[C@@H](N)C5)c(CO)nc23)ccc2nn(C)c(Cl)c12 [Example 141, {6-[(1S,2S,3S,5R)-3-amino-2-fluoro-8-azabicyclo[3.2.1]octan-8-yl]-3-(3-chloro-2,4-dimethyl-2H-indazol-5-yl)-1H-pyrazolo[3,4-b]pyrazin-5-yl}methanol] | 0.013 µM | 
22 | Cc1c(-c2n[nH]c3nc(N4[C@@H]5CC[C@H]4C[C@@H](N)C5)c(CO)nc23)ccc2nn(C)c(Cl)c12 [Example 142, {6-[endo-3-amino-8-azabicyclo[3.2.1]octan-8-yl]-3-(3-chloro-2,4-dimethyl-2H-indazol-5-yl)-1H-pyrazolo[3,4-b]pyrazin-5-yl}methanol] | 0.013 µM | 
23 | COCc1nc2ccc(-c3n[nH]c4nc(N5[C@H]6CC[C@@H]5[C@@H](F)[C@@H](N)C6)c(CO)nc34)c(Cl)c2s1 [Example 143, {6-[(1R,2S,3S,5S)-3-amino-2-fluoro-8-azabicyclo[3.2.1]octan-8-yl]-3-[7-chloro-2-(methoxymethyl)-1,3-benzothiazol-6-yl]-1H-pyrazolo[3,4-b]pyrazin-5-yl}methanol] | 0.0061 µM | 
24 | CC(C)Oc1cnc2ccc(-c3n[nH]c4nc(N5[C@H]6CC[C@@H]5[C@@H](F)[C@@H](N)C6)c(CO)nc34)c(Cl)c2n1 [Example 144, {6-[(1R,2S,3S,5S)-3-amino-2-fluoro-8-azabicyclo[3.2.1]octan-8-yl]-3-[5-chloro-3-(propan-2-yloxy)quinoxalin-6-yl]-1H-pyrazolo[3,4-b]pyrazin-5-yl}methanol] | 0.028 µM | 
25 | Cc1nc2c(-c3ccc4nn(C(C)C)c(C#N)c4c3Cl)n[nH]c2nc1N1[C@H]2CC[C@@H]1[C@@H](F)[C@@H](N)C2 [Example 145, 5-{6-[(1R,2S,3S,5S)-3-amino-2-fluoro-8-azabicyclo[3.2.1]octan-8-yl]-5-methyl-1H-pyrazolo[3,4-b]pyrazin-3-yl}-4-chloro-2-(propan-2-yl)-2H-indazole-3-carbonitrile, hydrochloride] | 0.036 µM | 
26 | N[C@H]1C[C@@H]2CC[C@H]([C@H]1F)N2c1nc2[nH]nc(-c3ccc4ncc(N5CCOCC5)nc4c3Cl)c2nc1CO [Example 147, {6-[(1R,2S,3S,5S)-3-amino-2-fluoro-8-azabicyclo[3.2.1]octan-8-yl]-3-[5-chloro-3-(morpholin-4-yl)quinoxalin-6-yl] 1H-pyrazolo[3,4-b]pyrazin-5-yl}methanol] | 0.014 µM | 
27 | Cc1nc2c(-c3ccc4ncc(N5CCOCC5)nc4c3Cl)n[nH]c2nc1N1[C@H]2CC[C@@H]1[C@@H](F)[C@@H](N)C2 [Example 148, (1R,2S,3S,5S)-8-{3-[5-chloro-3-(morpholin-4-yl)quinoxalin-6-yl] 5-methyl-1H-pyrazolo[3,4-b]pyrazin-6-yl}-2-fluoro-8-azabicyclo[3.2.1]octan-3-amine] | 0.025 µM | 
